Where two headings read alike, the source gives them in different places.
Test system: recombinant NL4-3 virus (Renilla luciferase) in MT-2 cells
Test: HIV cell culture assay (antiviral activity, luciferase readout in infected MT-2 cells)
Format: cell-based
Outline: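 Nef-deleted NL4-3 carrying Renilla luciferase, produced by 293T transfection, used to infect MT-2 cells for 4–5 days with serial compound dilutions. Live-cell luciferase signal read as infection marker; EC50 from exponential median-effect equation.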

[1] = Renilla, NL43, read-out: Activity, antiviral activity class, recombinant NL4-3 Renilla luciferase virus in MT-2 cells
[2] = Renilla, NL43, recombinant NL4-3 Renilla luciferase virus in MT-2 cells

SMILES	EC50 [1]	EC50 (read-out: Activity, antiviral activity class, recombinant NL4-3 Renilla luciferase virus in MT-2 cells)	EC50 [2]
COc1ncc(-c2ccccc2S(=O)(=O)NC(=O)N[C@@H](Cc2ccccc2)C(=O)N(C)c2ccc3c(c2)OCO3)cn1 [Example 130, (S)—N-(benzo[d][1,3]dioxol-5-yl)-2-(3-((2-(2-methoxypyrimidin-5-yl)phenyl)sulfonyl)ureido)-N-methyl-3-phenylpropanamide]	1000 to 10000 nM		
CN(C(=O)[C@H](Cc1ccccc1)NC(=O)NS(=O)(=O)c1ccccc1-c1ccc(C(N)=O)cc1)c1ccc2c(c1)OCO2 [Example 131, (S)-2′-(N-((1-(benzo[d][1,3]dioxol-5-yl(methyl)amino)-1-oxo-3-phenylpropan-2-yl)carbamoyl)sulfamoyl)-[1,1′-biphenyl]-4-carboxamide]	10000 to 100000 nM		
CN(C(=O)[C@H](Cc1ccccc1)NC(=O)NS(=O)(=O)c1ccccc1-c1ccsc1)c1ccc2c(c1)OCO2 [Example 132, (S)—N-(benzo[d][1,3]dioxol-5-yl)-N-methyl-3-phenyl-2-(3-((2-(thiophen-3-yl)phenyl)sulfonyl)ureido)propanamide]	10000 to 100000 nM		
CN(C(=O)[C@H](Cc1ccccc1)NC(=O)NS(=O)(=O)c1ccccc1-c1cnn(C)c1)c1ccc2c(c1)OCO2 [Example 133, (S)—N-(benzo[d][1,3]dioxol-5-yl)-N-methyl-2-(3-((2-(1-methyl-1H-pyrazol-4-yl)phenyl)sulfonyl)ureido)-3-phenylpropanamide]		100 to 1000 nM	
C=C(C)c1ccccc1S(=O)(=O)NC(=O)N[C@@H](Cc1ccccc1)C(=O)N(C)c1ccc2c(c1)OCO2 [Example 134, (S)—N-(benzo[d][1,3]dioxol-5-yl)-N-methyl-3-phenyl-2-(3-((2-(prop-1-en-2-yl)phenyl)sulfonyl)ureido)propanamide]	1000 to 10000 nM		
CC(C)c1ccccc1S(=O)(=O)NC(=O)N[C@@H](Cc1ccccc1)C(=O)N(C)c1ccc2c(c1)OCO2 [Example 135, (S)—N-(benzo[d][1,3]dioxol-5-yl)-2-(3-((2-isopropylphenyl)sulfonyl)ureido)-N-methyl-3-phenylpropanamide]	100 to 1000 nM		
C=Cc1ccccc1S(=O)(=O)NC(=O)N[C@@H](Cc1ccccc1)C(=O)N(C)c1ccc2c(c1)OCO2 [Example 136, (S)—N-(benzo[d][1,3]dioxol-5-yl)-N-methyl-3-phenyl-2-(3-((2-vinylphenyl)sulfonyl)ureido)propanamide]	< 100 nM		
C/C=C\c1ccccc1S(=O)(=O)NC(=O)N[C@@H](Cc1ccccc1)C(=O)N(C)c1ccc2c(c1)OCO2 [Example 137, (S,Z)—N-(benzo[d][1,3]dioxol-5-yl)-N-methyl-3-phenyl-2-(3-((2-(prop-1-en-1-yl)phenyl)sulfonyl)ureido)propanamide]	100 to 1000 nM		
C=Cc1cccc(S(=O)(=O)NC(=O)N[C@@H](Cc2ccccc2)C(=O)N(CC)c2ccc(OC)cc2)c1 [Example 138, (S)—N-ethyl-N-(4-methoxyphenyl)-3-phenyl-2-(3-((3-vinylphenyl)sulfonyl)ureido)propanamide]	< 100 nM		50 nM
C=C(C)c1cccc(S(=O)(=O)NC(=O)N[C@@H](Cc2ccccc2)C(=O)N(CC)c2ccc(OC)cc2)c1 [Example 139, (S)—N-ethyl-N-(4-methoxyphenyl)-3-phenyl-2-(3-((3-(prop-en-2-yl)phenyl)sulfonyl)ureido)propanamide]	< 100 nM		
C/C=C\c1cccc(S(=O)(=O)NC(=O)N[C@@H](Cc2ccccc2)C(=O)N(CC)c2ccc(OC)cc2)c1 [Example 140]	< 100 nM		
CCc1cccc(S(=O)(=O)NC(=O)N[C@@H](Cc2ccccc2)C(=O)N(CC)c2ccc(OC)cc2)c1 [Example 141, (S)—N-ethyl-2-(3-((3-ethylphenyl)sulfonyl)ureido)-N-(4-methoxyphenyl)-3-phenylpropanamide]	< 100 nM		
CCCc1cccc(S(=O)(=O)NC(=O)N[C@@H](Cc2ccccc2)C(=O)N(CC)c2ccc(OC)cc2)c1 [Example 142, (S)—N-ethyl-N-(4-methoxyphenyl)-3-phenyl-2-(3-((3-propylphenyl)sulfonyl)ureido)propanamide]	< 100 nM		60 nM
CCN(C(=O)[C@H](Cc1ccccc1)NC(=O)NS(=O)(=O)c1cccc(C(C)C)c1)c1ccc(OC)cc1 [Example 143, (S)—N-ethyl-2-(3-((3-isopropylphenyl)sulfonyl)ureido)-N-(4-methoxyphenyl)-3-phenylpropanamide]	< 100 nM		
CCc1ccc(C)c(S(=O)(=O)NC(=O)N[C@@H](Cc2ccccc2)C(=O)N(CC)c2ccc(OC)cc2)c1 [Example 144, (S)—N-ethyl-2-(3-((5-ethyl-2-methylphenyl)sulfonyl)ureido)-N-(4-methoxyphenyl)-3-phenylpropanamide]	100 to 1000 nM		620 nM
CCCc1ccccc1S(=O)(=O)NC(=O)N[C@@H](Cc1ccccc1)C(=O)N(C)c1ccc2c(c1)OCO2 [Example 145, (S)—N-(benzo[d][1,3]dioxol-5-yl)-N-methyl-3-phenyl-2-(3-((2-propylphenyl)sulfonyl)ureido)propanamide]	100 to 1000 nM		
CCc1ccccc1S(=O)(=O)NC(=O)N[C@@H](Cc1ccccc1)C(=O)N(C)c1ccc2c(c1)OCO2 [Example 146, (S)—N-(benzo[d][1,3]dioxol-5-yl)-2-(3-((2-ethylphenyl)sulfonyl)ureido)-N-methyl-3-phenylpropanamide]	< 100 nM		
CCN(C(=O)[C@H](Cc1ccccc1)NC(=O)NS(=O)(=O)c1ccccc1N)c1ccc(OC)cc1 [Example 147, (S)-2-(3-((2-aminophenyl)sulfonyl)ureido)-N-ethyl-N-(4-methoxyphenyl)-3-phenylpropanamide]	< 100 nM		
CN(C(=O)[C@H](Cc1ccccc1)NC(=O)NS(=O)(=O)c1ccccc1-c1ccc(F)nc1)c1ccc2c(c1)OCO2 [Example 148, (S)—N-(benzo[d][1,3]dioxol-5-yl)-2-(3-((2-(6-fluoropyridin-3-yl)phenyl)sulfonyl)ureido)-N-methyl-3-phenylpropanamide]	1000 to 10000 nM		
CCN(C(=O)[C@H](Cc1ccccc1)NC(=O)NS(=O)(=O)c1cccc(-c2ccco2)c1)c1ccc(OC)cc1 [Example 149]	100 to 1000 nM		
CCN(C(=O)[C@H](Cc1ccccc1)NC(=O)NS(=O)(=O)c1cccc(-c2ccsc2Cl)c1)c1ccc(OC)cc1 [Example 150, (S)-2-(3-((3-(2-chlorothiophen-3-yl)phenyl)sulfonyl)ureido)-N-ethyl-N-ethyl-N-(4-methoxyphenyl)-3-phenylpropanamide]	100 to 1000 nM		
CCN(C(=O)[C@H](Cc1ccccc1)NC(=O)NS(=O)(=O)c1cccc(-c2ccsc2)c1)c1ccc(OC)cc1 [Example 151, (S)—N-ethyl-N-(4-methoxyphenyl)-3-phenyl-2-(3-((3-(thiophen-3-yl)phenyl)sulfonyl)ureido)propanamide]	100 to 1000 nM		110 nM
CCN(C(=O)[C@H](Cc1ccccc1)NC(=O)NS(=O)(=O)c1cccc(-c2ccnn2C)c1)c1ccc(OC)cc1 [Example 152, (S)—N-ethyl-N-(4-methoxyphenyl)-2-(3-((3-(1-methyl-1H-pyrazol-5-yl)phenyl)sulfonyl)ureido)-3-phenylpropanamide]	< 100 nM		90 nM
CCN(C(=O)[C@H](Cc1ccccc1)NC(=O)NS(=O)(=O)c1cccc(-c2csc3ccccc23)c1)c1ccc(OC)cc1 [Example 153, (S)-2-(3-((3-(benzo[b]thiophen-3-yl)phenyl)sulfonyl)ureido)-N-ethyl-N-(4-methoxyphenyl)-3-phenylpropanamide]	100 to 1000 nM		

Source: patent publication US10035760B2, “Inhibitors of human immunodeficiency virus replication” (priority 2013, dated 2018)
